# Experimental data published in patent US7807368B2, “Cyclin-dependent kinase inhibitors as targets for opiod growth factor treatment” (priority 2006, dated 2010).
# Assays:
# Format in all cases: cell-based, human
# p16 = experiment: Western blot of p16 in CAL-27 cells; details: synchronized CAL-27 cells, 9 h
# Method: (§1) The SCC-1 (UM-SCC-1) cell line was obtained from the University of Michigan Cancer Research Laboratory, and CAL-27 and SCC-4 cells were obtained from the American Type Culture Collection (Manassas, Va.). SCC-1 and CAL-27 cells were cultured in DMEM media, whereas SCC-4 cells were grown in 1:1 Hams F-12 DMEM media. All media was supplemented with 10% fetal bovine serum (HyClone, Logan, Utah), 1.2% sodium bicarbonate, and 5000 units/ml penicillin, 5 μg/ml streptomycin and 10 μg/ml neomycin. OGF was purchased from Sigma-Aldrich (St. Louis, Mo.), dissolved in sterile water, and used at a final concentration of 10^−6 M.
# Synchronized cells (˜2×10^6) from each treatment were solubilized in 200 μl RIPA buffer (1×PBS, 10 μM IGEPAL, 1 mg/ml SDS, 5 mg/ml deoxycholic acid), containing protease and phosphatase inhibitors (2 μg/ml aprotinin, 3 mg/ml phenylmethyl sulfonyl fluoride (PMSF), 1 mM sodium orthovanidate, 1 μM okadaic acid). Total protein concentrations were measured using the DC protein assay kit (Bio-Rad Laboratories, Hercules, Calif.). Equal amounts of protein (40 μg) were subjected to 10% SDS-PAGE followed by transfer of proteins onto polyvinylidene difluoride (Millipore, Billerica, Mass.) using standard protocols. […]
# SCC-4 cells = experiment: Growth curves of SCC-4 cells transfected with p16 siRNA or negative control siRNA
# Method: as §1
# The p16-targeted siRNAs (antisense:5′ […]-3′; sense (SEQ ID NO:5): 5′ […]-3′(SEQ ID NO:6) were obtained as ready-annealed, purified duplex probes (Invitrogen, Carlsbad, Calif.). For transfection, 2×10^5 cells per well were seeded in 6-well plates containing 1 ml of serum-free media without antibiotics. In each well, 20 nM of p16-siRNA or control siRNA solutions in serum-free media were added. Cells were incubated for 4 h at 37° C. prior to the addition of OGF. Cultures were incubated for additional 20 h, and then 1 ml fresh complete media either lacking or containing OGF was added. At the indicated time points, cells were collected for growth curves or Western blotting. Three or more independent experiments were conducted. The control siRNAs were purchased from Ambion.
# Cdk4 kinase activity = experiment: Immunoprecipitation and Rb kinase assay (Cdk4 kinase activity) in SCC-1 cells
# Method: To quantify expression levels or kinase activity, the optical density of each band was determined by densitometry and analyzed by QuickOne (Bio-Rad Laboratories). Each value was normalized to β-actin from the same blot. To report the changes due to OGF treatment, the fold increase was calculated by dividing the normalized value from the OGF treated samples by the normalized value of control samples at each time point; thus, increases due to OGF have values greater than one, and decreases due to OGF have values less than one.
# Immunoprecipitation and Rb kinase assay. For immunoprecipitating protein complexes, cell extracts were prepared as follows: 2×10^6 cells per sample were rinsed in cold PBS followed by lysis in 100 μl NP40 immunoprecipitation buffer (1% NP-40, 50 mM Tris-HCI (pH7.4), 150 mM NaCl, 1 mM EDTA, 10 mM NaF, 2 μg/ml antipain, 1 mM sodium orthovanidate, 2 μg/ml aprotinin, 2 μg/ml leupeptin, 1 μg/ml pepstatin A, 1 μM okadaic acid, 1 mM PMSF, 1 mM dithiothreitol (DTT). For each immunoprecipitation reaction mixture, a total of 500 μg of protein extract was used. The lysates were then subjected to immunoprecipitation using 10 μl polyclonal antibody against Cdk4 prebound with agarose conjugate (sc-601 AC, Santa Cruz) for 60 min at 4° C. Then immunoprecipitates were mixed with kinase buffer (25 mM HEPES, pH7.4, 10 mM MgCl2), 5 μCi γ^32P-ATP, and Rb(769-921) (sc-4112, Santa Cruz) as the substrate for Cdk4. After incubation for 30 min at 30° C., with occasional mixing, the reaction was stopped by the addition of 2× sample loading buffer (0.5 M Tris-HCl, pH 6.8, 4.4% (w/v) SDS, 20% (v/v) glycerol, 2% (v/v) 2-mercaptoethanol, and bromophenol blue in distilled/deionized water). Proteins in the reaction mixture were separated by a 10% SDS-PAGE gel. The Cdk4 kinase activity pattern was visualized by autoradiography of phosphorylated Rb.
substance,measurement,setting,value
[Met^5]-enkephalin [OGF],p16 expression relative to controls,p16,increased p16 expression
same,decrease of growth,"SCC-4 cells; SCC-4 cells transfected with negative control siRNAs, 96 h",43%
same,effect on growth of cells lacking p16 expression,SCC-4 cells; SCC-4 cells transfected with p16 siRNAs,no effect
same,Cdk4 kinase activity vs control cells at each respective time,"Cdk4 kinase activity; OGF for 3, 6, 9, or 12 h (FIG. 1)",differed significantly
same,Cdk4 kinase activity relative to controls,"Cdk4 kinase activity; OGF for 6, 9, and 12 h",marked decrease
same,Cdk4 kinase activity relative to controls,Cdk4 kinase activity; OGF for 3 h,transient increase
